Test results taken from patent US8691753B2 (priority 2009, dated 2014).
Where two headings read alike, the source gives them in different places.

Columns and labels:
Assay type in all cases: biochemical
MMP-13h = MMP-13h (Homo sapiens (Human), UniProt P45452); test: Inhibition constant (Ki) on MMP-13h; details: human MMP-13
Description: (§1) The inhibition constant Ki of these compounds has been determined according to the protocol described by Devel et al, 2006, J. Biol. Chem. (7).
(§2) In this table I and also in table II below, “h” corresponds to human. All of the compounds have therefore been evaluated on human MMPs.

MMP-3h = MMP-3h (Homo sapiens (Human), UniProt P08254); test: Inhibition constant (Ki) on MMP-3h; details: human MMP-3
Description: as §1, §2

MMP-9h = MMP-9h (Homo sapiens (Human), UniProt P14780); test: Inhibition constant (Ki) on MMP-9h; details: human MMP-9
Description: as §1, §2

MMP-14h = MMP-14h (Homo sapiens (Human), UniProt P50281); test: Inhibition constant (Ki) on MMP-14h; details: human MMP-14
Description: as §1, §2

MMP-10h = MMP-10h (Homo sapiens (Human), UniProt P09238); test: Inhibition constant (Ki) on MMP-10h; details: human MMP-10
MMP-8h = MMP-8h (Homo sapiens (Human), UniProt P22894); test: Inhibition constant (Ki) on MMP-8h; details: human MMP-8
MMP-2h = MMP-2h (Homo sapiens (Human), UniProt P08253); test: Inhibition constant (Ki) on MMP-2h; details: human MMP-2
Description: as §1, §2

MMP-12h = MMP-12h (Homo sapiens (Human), UniProt P39900); test: Inhibition constant (Ki) on MMP-12h; details: human MMP-12
MMP-12h, sequence (P39900 106-470): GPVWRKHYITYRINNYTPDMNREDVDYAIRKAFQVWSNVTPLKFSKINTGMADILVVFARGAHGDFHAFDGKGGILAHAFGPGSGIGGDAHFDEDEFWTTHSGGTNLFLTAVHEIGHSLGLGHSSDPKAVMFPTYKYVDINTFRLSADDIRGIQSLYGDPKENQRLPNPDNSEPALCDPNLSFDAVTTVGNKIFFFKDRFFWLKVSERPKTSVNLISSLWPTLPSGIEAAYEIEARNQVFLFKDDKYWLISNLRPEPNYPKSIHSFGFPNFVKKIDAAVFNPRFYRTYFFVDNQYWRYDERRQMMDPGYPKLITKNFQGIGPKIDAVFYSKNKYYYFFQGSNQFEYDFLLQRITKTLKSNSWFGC

MMP-3h, sequence (P08254 100-477): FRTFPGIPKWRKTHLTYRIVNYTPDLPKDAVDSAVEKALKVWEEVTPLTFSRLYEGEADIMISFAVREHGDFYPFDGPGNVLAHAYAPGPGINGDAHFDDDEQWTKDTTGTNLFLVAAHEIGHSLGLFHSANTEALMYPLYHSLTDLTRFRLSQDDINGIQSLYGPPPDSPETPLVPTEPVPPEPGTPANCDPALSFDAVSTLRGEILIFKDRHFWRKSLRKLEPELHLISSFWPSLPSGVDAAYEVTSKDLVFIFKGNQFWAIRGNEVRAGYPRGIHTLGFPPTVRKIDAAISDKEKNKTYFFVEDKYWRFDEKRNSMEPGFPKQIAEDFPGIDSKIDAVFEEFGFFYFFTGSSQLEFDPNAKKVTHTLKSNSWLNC
MMP-9h, sequence (P14780 94-707): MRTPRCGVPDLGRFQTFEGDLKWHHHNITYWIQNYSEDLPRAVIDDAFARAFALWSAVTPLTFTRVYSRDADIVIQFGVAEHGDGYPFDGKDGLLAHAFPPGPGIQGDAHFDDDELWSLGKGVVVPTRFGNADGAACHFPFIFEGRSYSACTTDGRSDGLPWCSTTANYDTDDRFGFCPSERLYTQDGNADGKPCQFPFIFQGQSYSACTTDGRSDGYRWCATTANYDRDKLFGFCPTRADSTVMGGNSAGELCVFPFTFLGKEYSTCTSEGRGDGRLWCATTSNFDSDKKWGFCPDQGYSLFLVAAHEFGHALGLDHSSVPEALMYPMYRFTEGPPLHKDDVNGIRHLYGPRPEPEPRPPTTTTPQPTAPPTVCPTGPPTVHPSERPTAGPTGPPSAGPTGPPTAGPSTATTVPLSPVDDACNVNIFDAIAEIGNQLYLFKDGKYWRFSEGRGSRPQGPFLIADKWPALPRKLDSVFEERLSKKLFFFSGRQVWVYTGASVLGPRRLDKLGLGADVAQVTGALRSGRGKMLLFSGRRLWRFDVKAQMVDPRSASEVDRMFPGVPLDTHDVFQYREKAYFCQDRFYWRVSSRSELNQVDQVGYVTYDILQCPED
MMP-8h, sequence (P22894 101-467): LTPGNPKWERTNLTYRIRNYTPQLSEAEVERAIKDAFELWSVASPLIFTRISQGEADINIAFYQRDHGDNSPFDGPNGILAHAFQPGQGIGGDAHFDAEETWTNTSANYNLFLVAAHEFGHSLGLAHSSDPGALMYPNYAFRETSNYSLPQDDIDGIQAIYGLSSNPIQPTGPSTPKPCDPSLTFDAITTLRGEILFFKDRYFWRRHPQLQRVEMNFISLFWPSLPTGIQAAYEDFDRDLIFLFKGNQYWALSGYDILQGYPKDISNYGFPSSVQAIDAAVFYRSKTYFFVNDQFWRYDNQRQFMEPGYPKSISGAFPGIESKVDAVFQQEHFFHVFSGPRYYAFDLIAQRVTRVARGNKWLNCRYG
MMP-2h, sequence (P08253 110-660): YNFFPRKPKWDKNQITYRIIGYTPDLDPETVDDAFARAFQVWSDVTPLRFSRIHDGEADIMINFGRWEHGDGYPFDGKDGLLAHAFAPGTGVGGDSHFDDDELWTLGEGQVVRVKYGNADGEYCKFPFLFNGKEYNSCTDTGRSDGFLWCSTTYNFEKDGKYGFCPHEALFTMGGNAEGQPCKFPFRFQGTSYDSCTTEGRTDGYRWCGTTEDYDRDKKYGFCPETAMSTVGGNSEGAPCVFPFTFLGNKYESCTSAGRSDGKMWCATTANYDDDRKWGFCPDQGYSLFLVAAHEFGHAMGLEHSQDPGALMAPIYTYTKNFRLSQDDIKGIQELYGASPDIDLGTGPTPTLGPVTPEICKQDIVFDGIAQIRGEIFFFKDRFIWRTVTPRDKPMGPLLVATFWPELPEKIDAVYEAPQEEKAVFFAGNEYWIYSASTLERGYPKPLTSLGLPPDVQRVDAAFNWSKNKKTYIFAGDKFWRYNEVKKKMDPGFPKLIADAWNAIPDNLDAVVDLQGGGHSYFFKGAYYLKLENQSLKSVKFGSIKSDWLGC
MMP-10h, sequence (P09238 99-476): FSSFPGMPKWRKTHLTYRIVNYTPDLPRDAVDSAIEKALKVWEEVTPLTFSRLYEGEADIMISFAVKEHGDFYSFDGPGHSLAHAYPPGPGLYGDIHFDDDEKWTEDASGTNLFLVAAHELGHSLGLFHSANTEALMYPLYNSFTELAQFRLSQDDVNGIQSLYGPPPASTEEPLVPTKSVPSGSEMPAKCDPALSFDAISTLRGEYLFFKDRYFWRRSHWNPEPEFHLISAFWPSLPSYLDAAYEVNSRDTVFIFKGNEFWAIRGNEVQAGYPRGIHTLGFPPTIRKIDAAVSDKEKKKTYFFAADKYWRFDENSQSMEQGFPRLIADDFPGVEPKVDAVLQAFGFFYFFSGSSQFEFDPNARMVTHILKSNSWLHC

Compound | Ki (MMP-13h; read-out: Ki MMP-13h) | Ki (MMP-3h; read-out: Ki MMP-3h) | Ki (MMP-9h; read-out: Ki MMP-9h) | Ki (MMP-14h; read-out: Ki MMP-14h) | Ki (MMP-10h; read-out: Ki MMP-10h) | Ki (MMP-8h; read-out: Ki MMP-8h) | Ki (MMP-2h; read-out: Ki MMP-2h) | Ki (MMP-12h; read-out: Ki MMP-12h) | Ki (MMP-13h) | Ki (MMP-3h) | Ki (MMP-9h) | Ki (MMP-14h) | Ki (MMP-10h) | Ki (MMP-8h) | Ki (MMP-2h) | Ki (MMP-12h)
C[C@H](NC(=O)[C@H](CCC(=O)O)NC(=O)CCc1cc(-c2ccc(-c3ccccc3)cc2)no1)C(N)=O [Compound 23, (S)-5-((S)-1-amino-1-oxopropan-2-ylamino)-4-(3-(3-(biphenyl-4-yl)isoxazol-5-yl)propanamido)-5-oxopentanoic acid] | 80 nM | 460 nM | > 1000 nM | > 1000 nM | 276 nM | 351 nM | 78 nM | 11.2 nM | – | – | – | – | – | – | – | –
NC(=O)[C@H](CCC(=O)O)NC(=O)[C@H](CCC(=O)O)NC(=O)CCc1ccc(Oc2ccccc2)cc1 [Compound 28, (S)-5-amino-4-((S)-4-carboxy-2-(3-(4-phenoxyphenyl)propanamido)butanamido)-5-oxopentanoic acid] | 309 nM | > 5000 nM | > 10000 nM | > 1000 nM | > 1000 nM | > 1000 nM | > 1000 nM | 856 nM | – | – | – | – | – | – | – | –
NC(=O)[C@H](CCC(=O)O)NC(=O)[C@H](CCC(=O)O)NC(=O)CCc1ccc(COc2ccccc2)cc1 [Compound 29, (S)-5-amino-4-((S)-4-carboxy-2-(3-(4-(phenoxymethyl)phenyl)propanamido)butanamido)-5-oxopentanoic acid] | 117 nM | > 10000 nM | > 1000 nM | > 5000 nM | > 1000 nM | > 1000 nM | > 1000 nM | 469 nM | – | – | – | – | – | – | – | –
NC(=O)[C@H](CCC(=O)O)NC(=O)[C@H](CCC(=O)O)NC(=O)CCc1ccc(C#Cc2ccccc2)cc1 [Compound 30, (S)-5-amino-4-((S)-4-carboxy-2-(3-(4-(phenylethynyl)phenyl)propanamido)butanamido)-5-oxopentanoic acid] | 598 nM | > 1000 nM | 235 nM | > 1000 nM | > 1000 nM | 818 nM | > 1000 nM | 154 nM | – | – | – | – | – | – | – | –
NC(=O)[C@H](CCC(=O)O)NC(=O)[C@H](CCC(=O)O)NC(=O)CCc1ccc(I)cc1 [Compound 31, (S)-5-amino-4-((S)-4-carboxy-2-(3-(4-iodophenyl)propanamido)butanamido)-5-oxopentanoic acid] | > 1000 nM | > 5000 nM | > 1000 nM | > 1000 nM | > 1000 nM | 839 nM | > 1000 nM | 155 nM | – | – | – | – | – | – | – | –
NC(=O)[C@H](CCC(=O)O)NC(=O)[C@H](CCC(=O)O)NC(=O)CCc1ccc(-c2ncccn2)cc1 [Compound 32, (S)-5-amino-4-((S)-4-carboxy-2-(3-(4-(pyrimidin-2-yl)phenyl)propanamido)butanamido)-5-oxopentanoic acid] | 641 nM | > 1000 nM | > 1000 nM | > 1000 nM | > 5000 nM | > 1000 nM | > 5000 nM | 969 nM | – | – | – | – | – | – | – | –
Cn1ccc(-c2ccc(CCC(=O)N[C@@H](CCC(=O)O)C(=O)N[C@@H](CCC(=O)O)C(N)=O)cc2)n1 [Compound 33, (S)-5-amino-4-((S)-4-carboxy-2-(3-(4-(1-methyl-1H-pyrazol-3-yl)phenyl)propanamido)butanamido)-5-oxopentanoic acid] | 518 nM | > 10000 nM | > 1000 nM | > 1000 nM | > 10000 nM | > 1000 nM | > 1000 nM | 797 nM | – | – | – | – | – | – | – | –
Cc1nc(-c2ccc(CCC(=O)N[C@@H](CCC(=O)O)C(=O)N[C@@H](CCC(=O)O)C(N)=O)cc2)no1 [Compound 34, (S)-5-amino-4-((S)-4-carboxy-2-(3-(4-(5-methyl-1,2,4-oxadiazol-3-yl)phenyl)propanamido)butanamido)-5-oxopentanoic acid] | > 1000 nM | > 1000 nM | > 5000 nM | > 1000 nM | > 1000 nM | > 1000 nM | > 5000 nM | 887 nM | – | – | – | – | – | – | – | –
NC(=O)[C@H](CCC(=O)O)NC(=O)[C@H](CCC(=O)O)NC(=O)CCc1ccc(-c2csnn2)cc1 [Compound 35, (S)-4-(3-(4-(1,2,3-thiadiazol-4-yl)phenyl)propanamido)-5-((S)-1-amino-4-carboxy-1-oxobutan-2-ylamino)-5-oxopentanoic acid] | – | – | – | – | – | – | – | – | 212 nM | 281 nM | 199 nM | 438 nM | 679 nM | 231 nM | 442 nM | 158 nM
NC(=O)[C@H](CCC(=O)O)NC(=O)[C@H](CCC(=O)O)NC(=O)CCc1ccc(-n2cccc2)cc1 [Compound 36, (S)-4-(3-(4-(1H-pyrrol-1-yl)phenyl)propanamido)-5-((S)-1-amino-4-carboxy-1-oxobutan-2-ylamino)-5-oxopentanoic acid] | – | – | – | – | – | – | – | – | > 1000 nM | > 1000 nM | > 1000 nM | > 5000 nM | > 1000 nM | 373 nM | > 1000 nM | 59 nM
NC(=O)[C@H](CCC(=O)O)NC(=O)[C@H](CCC(=O)O)NC(=O)CCc1ccc(-c2nccs2)cc1 [Compound 37, (S)-5-amino-4-((S)-4-carboxy-2-(3-(4-(thiazol-2-yl)phenyl)propanamido)butanamido)-5-oxopentanoic acid] | – | – | – | – | – | – | – | – | 240 nM | > 5000 nM | > 1000 nM | > 1000 nM | > 1000 nM | > 1000 nM | 657 nM | 369 nM
NC(=O)[C@H](CCC(=O)O)NC(=O)[C@H](CCC(=O)O)NC(=O)CCc1ccc(-c2ccsc2)cc1 [Compound 38, (S)-5-amino-4-((S)-4-carboxy-2-(3-(4-(thiophen-3-yl)phenyl)propanamido)butanamido)-5-oxopentanoic acid] | – | – | – | – | – | – | – | – | 532 nM | 337 nM | 141 nM | 410 nM | 446 nM | 52 nM | 225 nM | 12 nM
NC(=O)[C@H](CCC(=O)O)NC(=O)[C@H](CCC(=O)O)NC(=O)CCc1ccc(-c2nc3ccccc3s2)cc1 [Compound 39, (S)-5-amino-4-((S)-2-(3-(4-(benzo[d]thiazol-2-yl)phenyl)propanamido)-4-carboxybutanamido)-5-oxopentanoic acid] | – | – | – | – | – | – | – | – | 134 nM | 88 nM | 618 nM | 547 nM | 99 nM | 146 nM | 151 nM | 2.2 nM
NC(=O)CC[C@H](NC(=O)[C@H](CCC(=O)O)NC(=O)CCc1ccc(-c2ccccc2)cc1)C(N)=O [Compound 42, (S)-4-(3-(biphenyl-4-yl)propanamido)-5-((S)-1,5-diamino-1,5-dioxopentan-2-ylamino)-5-oxopentanoic acid] | – | – | – | – | – | – | – | – | 884 nM | > 5000 nM | > 1000 nM | > 1000 nM | > 1000 nM | 285 nM | 448 nM | 48 nM
NC(=O)CC[C@H](NC(=O)[C@H](CCC(N)=O)NC(=O)CCc1ccc(-c2ccccc2)cc1)C(N)=O [Compound 43, (S)-2-(3-(biphenyl-4-yl)propanamido)-N^1-((S)-1,5-diamino-1,5-dioxopentan-2-yl)pentanediamide] | 259 nM | > 1000 nM | > 1000 nM | > 5000 nM | > 5000 nM | 657 nM | 319 nM | 306 nM | – | – | – | – | – | – | – | –
NCCCC[C@H](NC(=O)[C@H](CCC(=O)O)NC(=O)CCc1ccc(-c2ccccc2)cc1)C(N)=O [Compound 44, (S)-4-(3-(biphenyl-4-yl)propanamido)-5-((S)-1,6-diamino-1-oxohexan-2-ylamino)-5-oxopentanoic acid] | > 1000 nM | > 10000 nM | > 5000 nM | > 5000 nM | > 5000 nM | 414 nM | > 1000 nM | 119 nM | – | – | – | – | – | – | – | –
NC(=O)[C@H](CC(=O)O)NC(=O)[C@H](CCC(=O)O)NC(=O)CCc1ccc(-c2ccccc2)cc1 [Compound 45, (S)-5-((S)-1-amino-3-carboxy-1-oxopropan-2-ylamino)-4-(3-(biphenyl-4-yl)propanamido)-5-oxopentanoic acid] | > 1000 nM | > 5000 nM | > 1000 nM | > 5000 nM | > 1000 nM | 233 nM | 896 nM | 37 nM | – | – | – | – | – | – | – | –
NC(=O)[C@H](Cc1ccc(O)cc1)NC(=O)[C@H](CCC(=O)O)NC(=O)CCc1ccc(-c2ccccc2)cc1 [Compound 46, (S)-5-((S)-1-amino-3-(4-hydroxyphenyl)-1-oxopropan-2-ylamino)-4-(3-(biphenyl-4-yl)propanamido)-5-oxopentanoic acid] | > 1000 nM | > 10000 nM | > 1000 nM | > 5000 nM | > 1000 nM | 270 nM | 632 nM | 52 nM | – | – | – | – | – | – | – | –
C[C@H](NC(=O)[C@H](CCC(=O)O)NC(=O)CCc1ccc(-c2ccccc2)cc1)C(N)=O [Compound 47, (S)-5-((S)-1-amino-1-oxopropan-2-ylamino)-4-(3-(biphenyl-4-yl)propanamido)-5-oxopentanoic acid] | > 1000 nM | > 10000 nM | > 1000 nM | > 5000 nM | > 1000 nM | 311 nM | > 1000 nM | 58 nM | – | – | – | – | – | – | – | –
